Experiment [1] deals with T1, A. nidulans bimC motor domain (Emericella nidulans, UniProt P17120).
T1 construct: ATPase (bimC kinesin motor domain); made in house; host or cells: bacteria
T1 sequence (P17120 81-416 limits assumed): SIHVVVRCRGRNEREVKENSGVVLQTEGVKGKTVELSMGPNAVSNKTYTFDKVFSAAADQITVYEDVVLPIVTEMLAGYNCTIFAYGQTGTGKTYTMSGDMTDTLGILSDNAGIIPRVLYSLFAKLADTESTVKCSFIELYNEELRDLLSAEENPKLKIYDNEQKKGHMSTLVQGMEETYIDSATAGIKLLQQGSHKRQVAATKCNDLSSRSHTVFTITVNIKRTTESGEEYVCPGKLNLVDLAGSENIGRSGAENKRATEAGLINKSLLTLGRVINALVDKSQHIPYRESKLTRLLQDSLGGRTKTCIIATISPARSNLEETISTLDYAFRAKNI
Description: ATPase assay of bimC motor domain (ATP hydrolysis, ADP or phosphate readout). The conditions noted are these: bimC kinesin motor domain; motor domain fragment cloned and expressed in bacteria; FIG. 14. Format: biochemical, Aspergillus nidulans. The text has this: FIG. 12 depicts the cloning and expression of A. nidulans bimC motor domain. In Panel A, an overview of the express is shown. The fragment containing the bimC motor domain is indicated by a filled semi-circle. In B, a Coomassie stained gel of the purification of bimC motor domain is shown.
Aspergillus nidulans bimC is a kinesin related protein (KRP) whose gene product encodes an essential mitotic KRP. BimC is the founding member of the bimC subfamily of mitotic kinesins (Morris NR, Enos AP. (1992) Trends Genet 8:1 32-7). Mutants in bimC are blocked in mitosis and arrest with duplicated but unseparated spindle poles. (Enos AP, Morris NR. (1990) Cell 60:6 1019-27). Following the discovery that bimC encodes a KRP, several bimC family members have been identified in diverse organisms ranging from yeast to humans. See. FIG. 1. […]
In a particularly preferred embodiment, a fragment of the bimC protein comprising its hydrolytically active “motor” domain is used. This motor domain has been cloned and expressed in bacteria such that large quantities of biochemically active, substantially pure protein are available (FIG. 12). […]
In a preferred embodiment, activity is measured by the methods disclosed in Serial No. 09/314,464, filed May 18, 1999, which is incorporated herein by reference in its entirety. […] The presence of ADP or inorganic phosphate release is used as the readout for protein activity. […]

Experiment [2] has as its system fungal tubulin. As to conditions: cited from earlier work.
The test system of experiment [3] is mammalian tubulin. The conditions noted are these: cited from earlier work.

Consider 2 compounds from patent US6627408B1, “Antifungal assay” (Cytokinetics, Inc., priority 2000, dated 2003).

Each structure is given as a SMILES string.

`O=C1OC(c2ccco2)=N/C1=C\c1ccc(Br)s1` [D00018 row 1] had an IC50 in experiment [1] of 25 µM.
For `CCCCNC(=O)n1c(NC(=O)OC)nc2ccccc21` [benomyl], the “inhibition of fungal tubulin” value in experiment [2] was “potent inhibitor”. The “effect on mammalian tubulin” value in experiment [3] is “no effect”.

What is called IC50 is the midpoint of a concentration-inhibition curve.
